How the values were obtained:
pigweed = experiment: Test B pre/postemergence pigweed; format: in vivo, Amaranthus retroflexus
Procedure, shortened: (§1)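 Response is a visual 0-to-10 score relative to untreated plants, where 0 means no effect and 10 means complete control, taken twelve to sixteen days after application. Treatments went onto soil at planting and onto foliage of 1- to 4-leaf plants, using a surfactant-containing non-phytotoxic solvent.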

sugar beet = experiment: Test B pre/postemergence sugar beet; format: in vivo, Beta vulgaris
Procedure, shortened: as §1

wheat = experiment: Test B pre/postemergence wheat; format: in vivo, Triticum aestivum
Procedure, shortened: as §1

rape = experiment: Test B pre/postemergence rape; format: in vivo, Brassica napus
Procedure, shortened: as §1

blackgrass = experiment: Test B pre/postemergence blackgrass; format: in vivo, Alopecurus myosuroides
Procedure, shortened: as §1

morningglory = experiment: Test B pre/postemergence morningglory; format: in vivo, Ipomoea hederacea
Procedure, shortened: as §1

crabgrass = experiment: Test B pre/postemergence crabgrass; format: in vivo, Digitaria sanguinalis
Procedure, shortened: as §1

soybean = experiment: Test B pre/postemergence soybean; format: in vivo, Glycine max
Procedure, shortened: as §1

giant foxtail = experiment: Test B pre/postemergence giant foxtail; format: in vivo, Setaria faberii
Procedure, shortened: as §1

bedstraw = experiment: Test B pre/postemergence bedstraw; format: in vivo, Galium aparine
Procedure, shortened: as §1

cocklebur = experiment: Test B pre/postemergence cocklebur; format: in vivo, Xanthium strumarium
Procedure, shortened: as §1

corn = experiment: Test B pre/postemergence corn; format: in vivo, Zea mays
Procedure, shortened: as §1

velvetleaf = experiment: Test B pre/postemergence velvetleaf; format: in vivo, Abutilon theophrasti
Procedure, shortened: as §1

purple nutsedge = experiment: Test B pre/postemergence purple nutsedge; format: in vivo, Cyperus rotundus
Procedure, shortened: as §1

wild oat = experiment: Test B pre/postemergence wild oat; format: in vivo, Avena fatua
Procedure, shortened: as §1

surinam grass = experiment: Test B pre/postemergence surinam grass; format: in vivo, Brachiaria decumbens
Procedure, shortened: as §1

[1] = Postemergence, Rate 62 g/ha, scale of 0 to 10, 0 is no effect, 10 is complete control
[2] = Postemergence, Rate 125 g/ha, scale 0 to 10, 0 is no effect, 10 is complete control
[3] = Postemergence, Rate 500 g/ha, scale 0 to 10, 0 is no effect, 10 is complete control
[4] = Preemergence, Rate 62 g/ha, scale 0 to 10 (0 no effect, 10 complete control)
[5] = Preemergence, Rate 125 g/ha, scale 0 to 10, 0 is no effect, 10 is complete control
[6] = Preemergence, Rate 500 g/ha, scale of 0 to 10 where 0 is no effect and 10 is complete control
[7] = Rate 250 g/ha, Postemergence, scale of 0 to 10 where 0 is no effect and 10 is complete control

## Cc1noc(C)c1Cn1c(=O)on(C(=O)N(c2ccc(Cl)cc2)C(C)C)c1=O [Compound 540]
pigweed; [1]
  Redroot pigweed plant response rating: 0
pigweed; [2]
  Redroot pigweed plant response rating: 0
pigweed; [3]
  Plant response rating, Redroot pigweed: 2
pigweed; [4]
  Redroot pigweed plant response rating: 0
pigweed; [5]
  Redroot pigweed plant response rating: 0
pigweed; Preemergence, Rate 250 g/ha
  Redroot pigweed plant response rating (0 to 10 scale): 3
pigweed; [6]
  Redroot pigweed plant response rating: 10
pigweed; [7]
  Plant response rating, Redroot pigweed: 2
Sugar beet; [1]
  Sugarbeets plant response rating: 0
Sugar beet; [2]
  Sugarbeets plant response rating: 2
Sugar beet; [3]
  Plant response rating, Sugarbeets: 6
Sugar beet; [4]
  Sugarbeets plant response rating: 0
Sugar beet; [5]
  Sugarbeets plant response rating: 0
Sugar beet; Preemergence, Rate 250 g/ha
  Sugarbeets plant response rating (0 to 10 scale): 0
Sugar beet; [6]
  Sugarbeets plant response rating: 4
Sugar beet; [7]
  Plant response rating, Sugarbeets: 6
wheat; [1]
  Wheat plant response rating: 0
wheat; [2]
  Wheat plant response rating: 0
wheat; [3]
  Plant response rating, Wheat: 0
wheat; [4]
  Wheat plant response rating: 0
wheat; [5]
  Wheat plant response rating: 0
wheat; Preemergence, Rate 250 g/ha
  Wheat plant response rating (0 to 10 scale): 0
wheat; [6]
  Wheat plant response rating: 0
wheat; [7]
  Plant response rating, Wheat: 0
rape; [1]
  Rape plant response rating: 0
rape; [2]
  Rape plant response rating: 2
rape; [4]
  Rape plant response rating: 0
rape; [5]
  Rape plant response rating: 0
rape; Preemergence, Rate 250 g/ha
  Rape plant response rating (0 to 10 scale): 2
rape; [6]
  Rape plant response rating: 7
rape; [7]
  Plant response rating, Rape: 7
blackgrass; [1]
  Blackgrass plant response rating: 0
blackgrass; [2]
  Blackgrass plant response rating: 0
blackgrass; [3]
  Plant response rating, Blackgrass: 7
blackgrass; [4]
  Blackgrass plant response rating: 0
blackgrass; [5]
  Blackgrass plant response rating: 0
blackgrass; Preemergence, Rate 250 g/ha
  Blackgrass plant response rating (0 to 10 scale): 0
blackgrass; [6]
  Blackgrass plant response rating: 9
blackgrass; [7]
  Plant response rating, Blackgrass: 2
morningglory; [1]
  Morningglory plant response rating: 2
morningglory; [2]
  Morningglory plant response rating: 4
morningglory; [3]
  Plant response rating, Morningglory: 6
morningglory; [4]
  Morningglory plant response rating: 0
morningglory; [5]
  Morningglory plant response rating: 0
morningglory; Preemergence, Rate 250 g/ha
  Morningglory plant response rating (0 to 10 scale): 0
morningglory; [6]
  Morningglory plant response rating: 0
morningglory; [7]
  Plant response rating, Morningglory: 5
crabgrass; [1]
  Crabgrass plant response rating: 5
crabgrass; [2]
  Crabgrass plant response rating: 5
crabgrass; [3]
  Plant response rating, Crabgrass: 8
crabgrass; [4]
  Crabgrass plant response rating: 8
crabgrass; [5]
  Crabgrass plant response rating: 9
crabgrass; Preemergence, Rate 250 g/ha
  Crabgrass plant response rating (0 to 10 scale): 10
crabgrass; [6]
  Crabgrass plant response rating: 10
crabgrass; [7]
  Plant response rating, Crabgrass: 5
soybean; [1]
  Soybean plant response rating: 1
soybean; [2]
  Soybean plant response rating: 1
soybean; [3]
  Plant response rating, Soybean: 1
soybean; [4]
  Soybean plant response rating: 0
soybean; [5]
  Soybean plant response rating: 0
soybean; Preemergence, Rate 250 g/ha
  Soybean plant response rating (0 to 10 scale): 0
soybean; [6]
  Soybean plant response rating: 0
soybean; [7]
  Plant response rating, Soybean: 1
Giant foxtail; [1]
  Giant foxtail plant response rating: 0
Giant foxtail; [2]
  Giant foxtail plant response rating: 0
Giant foxtail; [3]
  Plant response rating, Giant foxtail: 3
Giant foxtail; [4]
  Giant foxtail plant response rating: 9
Giant foxtail; [5]
  Giant foxtail plant response rating: 9
Giant foxtail; Preemergence, Rate 250 g/ha
  Giant foxtail plant response rating (0 to 10 scale): 10
Giant foxtail; [6]
  Giant foxtail plant response rating: 10
Giant foxtail; [7]
  Plant response rating, Giant foxtail: 0
bedstraw; [1]
  Bedstraw plant response rating: 0
bedstraw; [2]
  Bedstraw plant response rating: 3
bedstraw; [3]
  Plant response rating, Bedstraw: 9
bedstraw; [4]
  Bedstraw plant response rating: 0
bedstraw; [5]
  Bedstraw plant response rating: 0
bedstraw; Preemergence, Rate 250 g/ha
  Bedstraw plant response rating (0 to 10 scale): 0
bedstraw; [6]
  Bedstraw plant response rating: 0
bedstraw; [7]
  Plant response rating, Bedstraw: 10
cocklebur; [1]
  Cocklebur plant response rating: 0
cocklebur; [2]
  Cocklebur plant response rating: 0
cocklebur; [3]
  Plant response rating, Cocklebur: 0
cocklebur; [4]
  Cocklebur plant response rating: 0
cocklebur; [5]
  Cocklebur plant response rating: 0
cocklebur; Preemergence, Rate 250 g/ha
  Cocklebur plant response rating (0 to 10 scale): 9
cocklebur; [6]
  Cocklebur plant response rating: 10
cocklebur; [7]
  Plant response rating, Cocklebur: 0
corn; [1]
  Corn plant response rating: 0
corn; [2]
  Corn plant response rating: 0
corn; [3]
  Plant response rating, Corn: 0
corn; [4]
  Corn plant response rating: 0
corn; [5]
  Corn plant response rating: 0
corn; Preemergence, Rate 250 g/ha
  Corn plant response rating (0 to 10 scale): 0
corn; [6]
  Corn plant response rating: 2
corn; [7]
  Plant response rating, Corn: 0
velvetleaf; [1]
  Velvetleaf plant response rating: 0
velvetleaf; [2]
  Velvetleaf plant response rating: 0
velvetleaf; [3]
  Plant response rating, Velvetleaf: 1
velvetleaf; [4]
  Velvetleaf plant response rating: 0
velvetleaf; [5]
  Velvetleaf plant response rating: 0
velvetleaf; Preemergence, Rate 250 g/ha
  Velvetleaf plant response rating (0 to 10 scale): 0
velvetleaf; [6]
  Velvetleaf plant response rating: 0
velvetleaf; [7]
  Plant response rating, Velvetleaf: 0
Purple nutsedge; [1]
  Nutsedge plant response rating: 0
Purple nutsedge; [2]
  Nutsedge plant response rating: 0
Purple nutsedge; [3]
  Plant response rating, Nutsedge: 0
Purple nutsedge; [5]
  Nutsedge plant response rating: 0
Purple nutsedge; Preemergence, Rate 250 g/ha
  Nutsedge plant response rating (0 to 10 scale): 0
Purple nutsedge; [6]
  Nutsedge plant response rating: 0
Purple nutsedge; [7]
  Plant response rating, Nutsedge: 0
Wild oat; [1]
  Wild oats plant response rating: 0
Wild oat; [2]
  Wild oats plant response rating: 0
Wild oat; [3]
  Plant response rating, Wild oats: 2
Wild oat; [4]
  Wild oats plant response rating: 0
Wild oat; [5]
  Wild oats plant response rating: 2
Wild oat; Preemergence, Rate 250 g/ha
  Wild oats plant response rating (0 to 10 scale): 2
Wild oat; [6]
  Wild oats plant response rating: 8
Wild oat; [7]
  Plant response rating, Wild oats: 0
Surinam grass; [1]
  B. signalgrass plant response rating: 0
Surinam grass; [2]
  B. signalgrass plant response rating: 0
Surinam grass; [3]
  Plant response rating, B. signalgrass: 3
Surinam grass; [4]
  B. signalgrass plant response rating: 0
Surinam grass; [5]
  B. signalgrass plant response rating: 0
Surinam grass; Preemergence, Rate 250 g/ha
  B. signalgrass plant response rating (0 to 10 scale, 0 is no effect, 10 is complete control): 0
Surinam grass; [6]
  B. signalgrass plant response rating: 8
Surinam grass; [7]
  Plant response rating, B. signalgrass: 0

From patent US6737383B1, “Herbicidal oxadiazolidines” (priority 1999, dated 2004)
